{"source": "patent US20250195670A1", "about": "“METFORMIN NANOFORMULATIONS AND METHODS OF USE THEREOF” (priority 2022, published 2025)", "key": {"[1]": {"settings": "oral metformin; cited from earlier work"}, "[2]": {"tested_on": "bone marrow-derived macrophages (BMDM)", "assay": "BMDM growth (optical density)", "assay_type": "cell-based", "settings": "Mus musculus; BMDM cells, 72 hours", "experimental": "FIGS. 5A-5D provide graphs of bone marrow-derived macrophages (BMDM) growth at the indicated concentrations of metformin (FIG. 5A), PAMAM-OH (FIG. 5B), PAMAM-OH and metformin (FIG. 5C), and P4-MET (FIG. 5D).\nThe ability of the dendrimers was also tested for their ability to deliver metformin to bone marrow-derived macrophages (BMDM). Specifically, BMDM cells were exposed to metformin, PAMAM-OH, PAMAM-OH with metformin, or P4-MET for 72 hours."}, "Panc-1 cells": {"tested_on": "Panc-1 cells", "assay": "Panc-1 cell growth (optical density)", "assay_type": "cell-based", "settings": "Homo sapiens", "experimental": "The ability of the dendrimers was also tested for their ability to deliver metformin to Panc-1 cells, a human pancreatic cancer cell line. Specifically, Panc-1 cells were exposed to metformin, PAMAM-OH, and P4-MET."}, "U87MG cells": {"tested_on": "U87MG cells", "assay": "U87MG cell growth (optical density)", "assay_type": "cell-based", "settings": "Homo sapiens, U-87 MG", "experimental": "FIGS. 2A-2D provide graphs of U87MG growth at the indicated concentrations of metformin (FIG. 2A), PAMAM-OH (FIG. 2B), PAMAM-OH and metformin (FIG. 2C), and P4-MET (FIG. 2D).\nThe ability of the dendrimers was tested for their ability to deliver metformin to U87MG cells, a human glioma cell line sensitive to metformin. Specifically, U87MG cells were exposed to metformin, PAMAM-OH, PAMAM-OH with metformin, or P4-MET."}, "Ln229 cells": {"tested_on": "Ln229 cells", "assay": "Ln229 cell growth (optical density)", "assay_type": "cell-based", "settings": "Homo sapiens, LN-229", "experimental": "FIGS. 3A-3D provide graphs of Ln229 growth at the indicated concentrations of metformin (FIG. 3A), PAMAM-OH (FIG. 3B), PAMAM-OH and metformin (FIG. 3C), and P4-MET (FIG. 3D).\nThe ability of the dendrimers was also tested for their ability to deliver metformin to Ln229 cells, a human glioblastoma cell line sensitive to metformin. Specifically, Ln229 cells were exposed to metformin, PAMAM-OH, PAMAM-OH with metformin, or P4-MET."}, "UNKPC cells": {"tested_on": "UNKPC cells", "assay": "UNKPC cell growth (optical density)", "assay_type": "cell-based", "experimental": "The ability of the dendrimers was also tested for their ability to deliver metformin to UNKPC cells, a pancreatic cancer cell line. Specifically, […] were exposed to metformin, PAMAM-OH, or P4-MET."}, "[3]": {"settings": "in vivo; cited from earlier work"}, "MGPP3 cells": {"tested_on": "MGPP3 cells", "assay": "MGPP3 cell growth (optical density)", "assay_type": "cell-based", "settings": "Mus musculus", "experimental": "FIGS. 4A-4D provide graphs of MGPP3 growth at the indicated concentrations of metformin (FIG. 4A), PAMAM-OH (FIG. 4B), PAMAM-OH and metformin (FIG. 4C), and P4-MET (FIG. 4D).\nThe ability of the dendrimers was also tested for their ability to deliver metformin to MGPP3 cells, a mouse glioblastoma cell line sensitive to metformin. Specifically, MGPP3 cells were exposed to metformin, PAMAM-OH, PAMAM-OH with metformin, or P4-MET."}, "cell cultures": {"tested_on": "cell cultures", "settings": "cited from earlier work"}}, "note": "pIC50: −log10 of the molar value.", "data": [{"smiles": "CN(C)C(=N)NC(=N)N", "note": "[metformin, 1,1-dimethylbiguanide]", "values": [{"measurement": "pharmacological concentrations in patients", "setting": "[1]", "value": "less than 50 μM"}, {"measurement": "pIC50", "setting": "[2]", "value": 2.45}, {"measurement": "pIC50", "setting": "Panc-1 cells", "value": 2.28}, {"measurement": "pIC50", "setting": "U87MG cells", "value": 1.84}, {"measurement": "pIC50", "setting": "Ln229 cells", "value": 3.00}, {"measurement": "pIC50", "setting": "UNKPC cells", "value": 2.79}, {"measurement": "gastrointestinal-related side effects, share of patients", "setting": "[3]", "value": "20-30%"}, {"measurement": "pIC50", "setting": "MGPP3 cells", "value": 1.90}, {"measurement": "typical effective concentration in cell cultures", "setting": "cell cultures", "value": "in the mM range"}]}]}
